Measurements as given in US20120270237A9, “METHODS FOR THE IDENTIFICATION OF KINASE INTERACTING MOLECULES AND FOR THE PURIFICATION OF KINASE PROTEINS” (Cellzone AG, priority 2009, published 2012).

Tests used:
Test in all cases: Kinobeads competition binding with immobilized CZC25342, mixed HeLa placenta lysates (Example 5, Table 7)
[1] = target: T1, kinases from mixed HeLa placenta lysates (Homo sapiens, UniProt Q05397); conditions: kinase FAK; 10 μM free compound; HeLa Placenta lysate mix
T1 construct: capturing and identification of kinases from mixed HeLa placenta lysates; endogenous in cells; host or cells: mixed lysate of HeLa cells and placenta tissue
T1 sequence (Q05397 whole entry): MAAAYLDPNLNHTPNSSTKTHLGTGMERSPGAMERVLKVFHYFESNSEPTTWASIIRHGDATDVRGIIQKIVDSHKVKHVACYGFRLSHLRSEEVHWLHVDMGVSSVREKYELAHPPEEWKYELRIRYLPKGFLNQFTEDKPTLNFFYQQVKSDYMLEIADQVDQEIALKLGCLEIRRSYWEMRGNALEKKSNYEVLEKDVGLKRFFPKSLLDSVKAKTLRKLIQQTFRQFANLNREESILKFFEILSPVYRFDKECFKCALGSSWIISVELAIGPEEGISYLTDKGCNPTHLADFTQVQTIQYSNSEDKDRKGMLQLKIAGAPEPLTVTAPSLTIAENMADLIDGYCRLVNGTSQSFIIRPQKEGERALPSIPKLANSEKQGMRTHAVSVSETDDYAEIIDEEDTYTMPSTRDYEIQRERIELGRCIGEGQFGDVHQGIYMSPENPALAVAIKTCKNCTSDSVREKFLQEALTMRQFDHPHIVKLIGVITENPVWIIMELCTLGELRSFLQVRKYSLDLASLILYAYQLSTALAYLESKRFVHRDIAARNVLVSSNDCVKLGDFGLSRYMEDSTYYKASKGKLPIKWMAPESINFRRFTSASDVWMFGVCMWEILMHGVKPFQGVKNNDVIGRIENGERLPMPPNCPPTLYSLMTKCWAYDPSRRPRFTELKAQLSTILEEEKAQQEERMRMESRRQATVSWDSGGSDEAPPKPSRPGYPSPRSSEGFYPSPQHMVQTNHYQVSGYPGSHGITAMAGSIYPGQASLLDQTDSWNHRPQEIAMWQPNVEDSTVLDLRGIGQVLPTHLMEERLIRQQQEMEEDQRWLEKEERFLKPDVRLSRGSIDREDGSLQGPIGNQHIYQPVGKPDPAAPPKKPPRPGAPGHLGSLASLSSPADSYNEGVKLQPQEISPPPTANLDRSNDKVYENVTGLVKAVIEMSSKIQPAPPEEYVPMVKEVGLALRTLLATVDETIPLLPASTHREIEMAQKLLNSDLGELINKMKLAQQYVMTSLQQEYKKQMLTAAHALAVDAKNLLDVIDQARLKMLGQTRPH
Method: (§1) To one aliquot of cell lysate 10 μM of the free compound (FIG. 2, CZC25342) was added and allowed to bind to proteins in the lysate. Then the affinity matrix with the immobilized compound was added to capture proteins that were not interacting with the previously added free compound. Beads were separated from the lysate and bead bound proteins were eluted in SDS sample buffer and subsequently separated by SDS-Polyacrylamide gel electrophoresis (FIG. 11). Suitable gel bands were cut out and subjected to in-gel proteolytic digestion with trypsin. The second lysate aliquot was processed identically, however no free compound was added (DMSO solvent control). Peptides originating from samples 1 and 2 were labeled with iTRAQ reagents (iTRAQ 114 and iTRAQ 117) and the combined samples were analyzed with a nano-flow liquid chromatography system coupled online to a tandem mass spectrometer (LC-MS/MS) experiment followed by iTRAQ reporter ion quantification in the MS/MS spectra as described in Example 2. The identified kinases are shown in Table 7 including the percent competition values for the sample to which 10 μM free compound had been added. In total of 83 different kinases were identified and competed by different degrees.

[2] = target: T2, kinases from mixed HeLa placenta lysates (Homo sapiens, UniProt P08581); conditions: kinase MET; 10 μM free compound; HeLa Placenta lysate mix
T2 construct: capturing and identification of kinases from mixed HeLa placenta lysates; endogenous in cells; host or cells: mixed lysate of HeLa cells and placenta tissue
Method: as §1

[3] = target: T3, kinases from mixed HeLa placenta lysates (Homo sapiens, UniProt Q2M2I8); conditions: kinase AAK1; 10 μM free compound; HeLa Placenta lysate mix
T3 construct: capturing and identification of kinases from mixed HeLa placenta lysates; endogenous in cells; host or cells: mixed lysate of HeLa cells and placenta tissue
Method: as §1

[4] = target: T4, kinases from mixed HeLa placenta lysates (Homo sapiens, UniProt Q13131); conditions: kinase AMPKa1; 10 μM free compound; HeLa Placenta lysate mix
T4 construct: capturing and identification of kinases from mixed HeLa placenta lysates; endogenous in cells; host or cells: mixed lysate of HeLa cells and placenta tissue
Method: as §1

[5] = target: T5, kinases from mixed HeLa placenta lysates (Homo sapiens, UniProt Q13976); conditions: kinase PKG1; 10 μM free compound; HeLa Placenta lysate mix
T5 construct: capturing and identification of kinases from mixed HeLa placenta lysates; endogenous in cells; host or cells: mixed lysate of HeLa cells and placenta tissue
Method: as §1

[6] = target: T6, kinases from mixed HeLa placenta lysates (Homo sapiens, UniProt P29597); conditions: kinase TYK2; 10 μM free compound; HeLa Placenta lysate mix
T6 construct: capturing and identification of kinases from mixed HeLa placenta lysates; endogenous in cells; host or cells: mixed lysate of HeLa cells and placenta tissue
Method: as §1

[7] = target: T7, kinases from mixed HeLa placenta lysates (Homo sapiens, UniProt P45984); conditions: kinase JNK2; 10 μM free compound; HeLa Placenta lysate mix
T7 construct: capturing and identification of kinases from mixed HeLa placenta lysates; endogenous in cells; host or cells: mixed lysate of HeLa cells and placenta tissue
T7 sequence (P45984 whole entry): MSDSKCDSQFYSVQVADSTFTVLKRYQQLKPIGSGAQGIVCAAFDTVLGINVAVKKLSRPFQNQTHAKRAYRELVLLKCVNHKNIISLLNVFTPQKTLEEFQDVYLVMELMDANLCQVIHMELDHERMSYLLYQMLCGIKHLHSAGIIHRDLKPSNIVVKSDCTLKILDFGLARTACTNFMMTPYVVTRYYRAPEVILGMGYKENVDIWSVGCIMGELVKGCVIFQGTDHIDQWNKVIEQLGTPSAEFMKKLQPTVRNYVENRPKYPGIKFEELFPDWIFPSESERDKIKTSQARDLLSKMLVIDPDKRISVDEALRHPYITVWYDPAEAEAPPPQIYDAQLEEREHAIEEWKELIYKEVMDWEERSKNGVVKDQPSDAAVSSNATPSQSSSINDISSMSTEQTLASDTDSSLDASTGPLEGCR
Method: as §1

[8] = target: T8, kinases from mixed HeLa placenta lysates (Homo sapiens, UniProt O14976); conditions: kinase GAK; 10 μM free compound; HeLa Placenta lysate mix
T8 construct: capturing and identification of kinases from mixed HeLa placenta lysates; endogenous in cells; host or cells: mixed lysate of HeLa cells and placenta tissue
Method: as §1

[9] = target: T9, kinases from mixed HeLa placenta lysates (Homo sapiens, UniProt P06241); conditions: kinase FYN; 10 μM free compound; HeLa Placenta lysate mix
T9 construct: capturing and identification of kinases from mixed HeLa placenta lysates; endogenous in cells; host or cells: mixed lysate of HeLa cells and placenta tissue
Method: as §1

[10] = target: T10, kinases from mixed HeLa placenta lysates (Homo sapiens, UniProt Q9H422); conditions: kinase HIPK3; 10 μM free compound; HeLa Placenta lysate mix
T10 construct: capturing and identification of kinases from mixed HeLa placenta lysates; endogenous in cells; host or cells: mixed lysate of HeLa cells and placenta tissue
T10 sequence (Q9H422 whole entry): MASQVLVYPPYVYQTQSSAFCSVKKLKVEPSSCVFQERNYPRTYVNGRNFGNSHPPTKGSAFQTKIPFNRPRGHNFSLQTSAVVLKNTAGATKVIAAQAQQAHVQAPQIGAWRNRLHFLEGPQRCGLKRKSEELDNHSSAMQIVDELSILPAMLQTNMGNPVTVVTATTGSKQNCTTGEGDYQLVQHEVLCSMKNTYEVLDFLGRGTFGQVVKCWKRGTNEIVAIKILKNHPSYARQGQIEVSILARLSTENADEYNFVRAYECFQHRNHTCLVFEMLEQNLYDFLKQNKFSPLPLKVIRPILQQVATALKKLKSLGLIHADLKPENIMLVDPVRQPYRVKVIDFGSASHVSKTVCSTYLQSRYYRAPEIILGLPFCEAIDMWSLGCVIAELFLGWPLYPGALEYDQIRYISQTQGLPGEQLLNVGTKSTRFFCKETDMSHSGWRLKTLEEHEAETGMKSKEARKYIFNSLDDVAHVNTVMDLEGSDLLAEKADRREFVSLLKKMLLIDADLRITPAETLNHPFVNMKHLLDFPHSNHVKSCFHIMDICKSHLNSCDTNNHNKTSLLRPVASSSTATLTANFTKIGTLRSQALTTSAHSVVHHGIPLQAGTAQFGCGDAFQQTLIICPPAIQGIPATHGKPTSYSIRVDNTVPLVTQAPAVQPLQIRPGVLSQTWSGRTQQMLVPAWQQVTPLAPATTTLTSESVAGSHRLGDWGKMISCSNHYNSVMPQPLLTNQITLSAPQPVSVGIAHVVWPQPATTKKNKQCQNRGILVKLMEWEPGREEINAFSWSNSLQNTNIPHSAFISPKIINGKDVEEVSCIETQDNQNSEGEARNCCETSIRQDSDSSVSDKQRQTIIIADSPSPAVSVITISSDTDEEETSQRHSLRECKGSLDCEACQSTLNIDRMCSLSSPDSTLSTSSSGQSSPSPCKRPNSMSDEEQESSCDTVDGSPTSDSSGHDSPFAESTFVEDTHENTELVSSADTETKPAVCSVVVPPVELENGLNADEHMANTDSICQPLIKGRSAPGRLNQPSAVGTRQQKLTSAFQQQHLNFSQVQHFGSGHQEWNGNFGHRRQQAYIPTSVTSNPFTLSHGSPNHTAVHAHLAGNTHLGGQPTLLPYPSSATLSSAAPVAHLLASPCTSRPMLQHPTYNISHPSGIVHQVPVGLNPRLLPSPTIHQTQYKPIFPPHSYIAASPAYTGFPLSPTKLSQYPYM
Method: as §1

[11] = target: T11, kinases from mixed HeLa placenta lysates (Homo sapiens, UniProt Q00535); conditions: kinase CDK5; 10 μM free compound; HeLa Placenta lysate mix
T11 construct: capturing and identification of kinases from mixed HeLa placenta lysates; endogenous in cells; host or cells: mixed lysate of HeLa cells and placenta tissue
Method: as §1

[12] = target: T12, kinases from mixed HeLa placenta lysates (Homo sapiens, UniProt P49841); conditions: kinase GSK3B; 10 μM free compound; HeLa Placenta lysate mix
T12 construct: capturing and identification of kinases from mixed HeLa placenta lysates; endogenous in cells; host or cells: mixed lysate of HeLa cells and placenta tissue
Method: as §1

[13] = target: T13, kinases from mixed HeLa placenta lysates (Homo sapiens, UniProt P23458); conditions: kinase JAK1; 10 μM free compound; HeLa Placenta lysate mix
T13 construct: capturing and identification of kinases from mixed HeLa placenta lysates; endogenous in cells; host or cells: mixed lysate of HeLa cells and placenta tissue
Method: as §1

[14] = target: T14, kinases from mixed HeLa placenta lysates (Homo sapiens, UniProt P36894); conditions: kinase BMPR1A; 10 μM free compound; HeLa Placenta lysate mix
T14 construct: capturing and identification of kinases from mixed HeLa placenta lysates; endogenous in cells; host or cells: mixed lysate of HeLa cells and placenta tissue
Method: as §1

[15] = target: T15, kinases from mixed HeLa placenta lysates (Homo sapiens, UniProt Q5TCX8); conditions: kinase MLK4; 10 μM free compound; HeLa Placenta lysate mix
T15 construct: capturing and identification of kinases from mixed HeLa placenta lysates; endogenous in cells; host or cells: mixed lysate of HeLa cells and placenta tissue
T15 sequence (Q5TCX8 whole entry): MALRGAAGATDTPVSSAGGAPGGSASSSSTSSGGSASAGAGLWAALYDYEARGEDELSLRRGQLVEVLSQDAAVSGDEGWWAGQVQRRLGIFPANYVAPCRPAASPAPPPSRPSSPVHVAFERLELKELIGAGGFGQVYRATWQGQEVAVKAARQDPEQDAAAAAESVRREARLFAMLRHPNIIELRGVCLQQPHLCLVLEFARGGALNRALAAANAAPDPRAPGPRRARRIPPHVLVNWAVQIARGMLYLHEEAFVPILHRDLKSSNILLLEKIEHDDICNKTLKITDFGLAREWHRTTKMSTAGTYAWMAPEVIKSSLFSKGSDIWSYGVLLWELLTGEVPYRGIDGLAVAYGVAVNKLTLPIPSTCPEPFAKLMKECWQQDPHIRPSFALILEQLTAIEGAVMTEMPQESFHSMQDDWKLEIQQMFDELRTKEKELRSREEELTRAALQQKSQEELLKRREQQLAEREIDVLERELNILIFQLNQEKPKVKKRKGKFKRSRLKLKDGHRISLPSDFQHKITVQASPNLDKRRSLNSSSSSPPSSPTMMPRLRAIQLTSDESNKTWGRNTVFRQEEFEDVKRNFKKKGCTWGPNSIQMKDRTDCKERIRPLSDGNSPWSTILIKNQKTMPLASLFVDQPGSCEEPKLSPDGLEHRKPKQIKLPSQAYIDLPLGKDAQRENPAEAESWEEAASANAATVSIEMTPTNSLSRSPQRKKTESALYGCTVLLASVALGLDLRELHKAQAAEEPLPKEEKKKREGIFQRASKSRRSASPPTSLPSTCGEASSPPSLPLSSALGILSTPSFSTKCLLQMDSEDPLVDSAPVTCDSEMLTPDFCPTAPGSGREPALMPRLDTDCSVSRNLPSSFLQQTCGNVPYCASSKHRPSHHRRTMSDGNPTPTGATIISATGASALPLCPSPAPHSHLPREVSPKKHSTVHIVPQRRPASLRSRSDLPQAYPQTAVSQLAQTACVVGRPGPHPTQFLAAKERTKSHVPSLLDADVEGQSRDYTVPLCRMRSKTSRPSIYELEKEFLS
Method: as §1

[16] = target: T16, kinases from mixed HeLa placenta lysates (Homo sapiens, UniProt P51812); conditions: kinase RSK2; 10 μM free compound; HeLa Placenta lysate mix
T16 construct: capturing and identification of kinases from mixed HeLa placenta lysates; endogenous in cells; host or cells: mixed lysate of HeLa cells and placenta tissue
Method: as §1

[17] = target: T17, kinases from mixed HeLa placenta lysates (Homo sapiens, UniProt O43318); conditions: kinase MAP3K7; 10 μM free compound; HeLa Placenta lysate mix
T17 construct: capturing and identification of kinases from mixed HeLa placenta lysates; endogenous in cells; host or cells: mixed lysate of HeLa cells and placenta tissue
T17 sequence (O43318 whole entry): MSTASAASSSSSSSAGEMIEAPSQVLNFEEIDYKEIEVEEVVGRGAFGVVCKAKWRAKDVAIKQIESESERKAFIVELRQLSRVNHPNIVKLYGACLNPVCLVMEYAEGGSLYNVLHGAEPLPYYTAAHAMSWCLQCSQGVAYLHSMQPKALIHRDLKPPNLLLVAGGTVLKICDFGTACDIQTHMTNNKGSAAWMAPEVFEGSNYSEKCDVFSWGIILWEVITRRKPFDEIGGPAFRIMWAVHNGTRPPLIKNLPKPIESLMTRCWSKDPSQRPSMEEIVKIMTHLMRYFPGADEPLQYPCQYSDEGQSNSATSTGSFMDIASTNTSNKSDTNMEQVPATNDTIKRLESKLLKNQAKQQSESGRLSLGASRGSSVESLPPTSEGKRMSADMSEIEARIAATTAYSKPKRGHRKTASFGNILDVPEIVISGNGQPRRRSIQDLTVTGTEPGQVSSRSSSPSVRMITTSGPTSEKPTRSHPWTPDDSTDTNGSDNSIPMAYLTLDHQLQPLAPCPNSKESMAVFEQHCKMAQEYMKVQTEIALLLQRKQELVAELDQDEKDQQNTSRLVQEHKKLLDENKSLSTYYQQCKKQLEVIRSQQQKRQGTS
Method: as §1

[18] = target: T18, kinases from mixed HeLa placenta lysates (Homo sapiens, UniProt Q13555); conditions: kinase CaMK2g; 10 μM free compound; HeLa Placenta lysate mix
T18 construct: capturing and identification of kinases from mixed HeLa placenta lysates; endogenous in cells; host or cells: mixed lysate of HeLa cells and placenta tissue
Method: as §1

[19] = target: T19, kinases from mixed HeLa placenta lysates (Homo sapiens, UniProt O75716); conditions: kinase MPSK1; 10 μM free compound; HeLa Placenta lysate mix
T19 construct: capturing and identification of kinases from mixed HeLa placenta lysates; endogenous in cells; host or cells: mixed lysate of HeLa cells and placenta tissue
Method: as §1

[20] = target: T20, kinases from mixed HeLa placenta lysates (Homo sapiens, UniProt P43405); conditions: kinase SYK; 10 μM free compound; HeLa Placenta lysate mix
T20 construct: capturing and identification of kinases from mixed HeLa placenta lysates; endogenous in cells; host or cells: mixed lysate of HeLa cells and placenta tissue
Method: as §1

[21] = target: T21, kinases from mixed HeLa placenta lysates (Homo sapiens, UniProt Q8TBX8); conditions: kinase PIP5K2C; 10 μM free compound; HeLa Placenta lysate mix
T21 construct: capturing and identification of kinases from mixed HeLa placenta lysates; endogenous in cells; host or cells: mixed lysate of HeLa cells and placenta tissue
Method: as §1

[22] = target: T22, kinases from mixed HeLa placenta lysates (Homo sapiens, UniProt O96013); conditions: kinase PAK4; 10 μM free compound; HeLa Placenta lysate mix
T22 construct: capturing and identification of kinases from mixed HeLa placenta lysates; endogenous in cells; host or cells: mixed lysate of HeLa cells and placenta tissue
T22 sequence (O96013 whole entry): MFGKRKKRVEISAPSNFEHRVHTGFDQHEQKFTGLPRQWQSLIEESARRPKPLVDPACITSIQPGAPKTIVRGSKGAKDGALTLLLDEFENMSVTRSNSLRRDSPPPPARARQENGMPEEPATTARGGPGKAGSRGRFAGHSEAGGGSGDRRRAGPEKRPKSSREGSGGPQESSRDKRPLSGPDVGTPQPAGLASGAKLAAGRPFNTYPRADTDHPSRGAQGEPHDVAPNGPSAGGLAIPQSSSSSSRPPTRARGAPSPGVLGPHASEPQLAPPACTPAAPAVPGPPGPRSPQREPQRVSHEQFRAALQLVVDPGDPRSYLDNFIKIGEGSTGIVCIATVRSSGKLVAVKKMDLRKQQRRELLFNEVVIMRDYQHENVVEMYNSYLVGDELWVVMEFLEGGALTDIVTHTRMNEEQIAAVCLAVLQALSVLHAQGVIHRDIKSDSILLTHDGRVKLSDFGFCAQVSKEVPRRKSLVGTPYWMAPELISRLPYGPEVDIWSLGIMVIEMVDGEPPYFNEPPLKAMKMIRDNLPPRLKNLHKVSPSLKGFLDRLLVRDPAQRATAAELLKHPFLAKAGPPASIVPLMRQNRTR
Method: as §1

[23] = target: T23, kinases from mixed HeLa placenta lysates (Homo sapiens, UniProt P27448); conditions: kinase MARK3; 10 μM free compound; HeLa Placenta lysate mix
T23 construct: capturing and identification of kinases from mixed HeLa placenta lysates; endogenous in cells; host or cells: mixed lysate of HeLa cells and placenta tissue
Method: as §1

[24] = target: T24, kinases from mixed HeLa placenta lysates (Homo sapiens, UniProt Q96RR4); conditions: kinase CaMKK2; 10 μM free compound; HeLa Placenta lysate mix
T24 construct: capturing and identification of kinases from mixed HeLa placenta lysates; endogenous in cells; host or cells: mixed lysate of HeLa cells and placenta tissue
Method: as §1

Competition % FAK [1]: 96%
Competition % MET [2]: 94.2%
Competition % AAK1 [3]: 95.6%
Competition % AMPKa1 [4]: 95.2%
Competition % PKG1 [5]: 79.3%
Competition % TYK2 [6]: 96.6%
Competition % JNK2 [7]: 83.8%
Competition % GAK [8]: 95.9%
Competition % FYN [9]: 93.2%
Competition % HIPK3 [10]: 95.4%
Competition % CDK5 [11]: 92.6%
Competition % GSK3B [12]: 92.5%
Competition % JAK1 [13]: 96.7%
Competition % BMPR1A [14]: 84.1%
Competition % MLK4 [15]: 85.8%
Competition % RSK2 [16]: 95.6%
Competition % MAP3K7 [17]: 85.8%
Competition % CaMK2g [18]: 75.2%
Competition % MPSK1 [19]: 92.1%
Competition % SYK [20]: 94.8%
Competition % PIP5K2C [21]: 97.3%
Competition % PAK4 [22]: 94.8%
Competition % MARK3 [23]: 96.2%
Competition % CaMKK2 [24]: 96.3%
Structure (SMILES): CS(=O)(=O)Nc1ccccc1Nc1nc(Nc2cccc(OCCN)c2)ncc1F [CZC25342, N-(2-(2-(3-(2-aminoethoxy)phenylamino)-5-fluoropyrimidin-4-ylamino)phenyl)methanesulfonamide]
